Results as given in patent publication US9481900B2, “Polypeptides having oxidoreductase activity and their uses” (Purac Biochem B.V., priority 2009, dated 2016).
In brackets after ≈: the same amount, converted by molar mass.

Legend:
[1] = Solubility of FDCA in water; format: physicochemical
[2] = HMF oxidoreductase assay: FDCA formation in cell extract of P. putida_pJT'hmfH; format: biochemical
Procedure: Cell extracts of wildtype C. basilensis HMF14 or P. putida S12 transformants expressing HMF oxidoreductase were prepared from 50-ml late exponential growth phase cultures using MM supplemented with either 12 mM succinate (C. basilensis HMF14, OD600≈1.5) or 20 mM glucose (P. putida S12, OD600≈4). The cultures were harvested by centrifugation and resuspended in 3 ml of assay buffer. Cells were disrupted by sonication, using either a Branson sonifier (micro tip at pulse mode, output set at 3 and percentage duty cycle set to 40%; 3 cycles of sonication: 45 s of pulsing and 15 s pause) or a Sonics Vibra-Cell (Sonics&Materials, USA) (5 mm tapered microtip; pulse mode set to 1 min (0.5 s pulse, 2 sec pause). After sonication, debris was removed by centrifuging at 8228×g for 3 min at 4° C. The supernatant was desalted using a PD10 gel filtration column (GE healthcare) and used as cell extract for HMF oxidoreductase assays. Protein concentration was measured using Bradford reagent (Sigma-Aldrich).
HMF oxidoreductase assays were performed in cell extracts of wildtype C. basilensis HMF14 or P. putida S12 transformants expressing the C. basilensis HMF14 HMF oxidoreductase. As a negative control, wildtype P. putida S12 or a C. basilensis HMF14 mutant was used that carried a transposon insertion in the hmfH gene. […]

| solubility ([1]; aqueous buffer, pH 1.0) [µg/mL] | solubility ([1]; pH 0.5, aqueous buffer) [µg/mL] | Molecule | substrate oxidation by the enzyme [2] |
| --- | --- | --- | --- |
| ~1500 (≈ 9.61 mM) | ~400 (≈ 2.56 mM) | O=C(O)c1ccc(C(=O)O)o1 [FDCA, 2,5-Furan-dicarboxylic acid] |  |
|  |  | HmfH: 62 317 Da FAD-dependent GMC-family oxidoreductase of Cupriavidus basilensis HMF14, encoded by hmfH (protein, listed as Cupriavidus basilensis) MDTPRERFDYVIVGGGSAGCVLANRLSQDPAIRVALIEAGVDTPPDAVPAEILDSYPMPLFFGDRYIWPSLQARAVAGGRSKVYEQGRVMGGGSSINVQAANRGLPRDYDEWAASGASGWSWQDVLPYFRHLERDVDYGNSPLHGSHGPVPIRRILPQAWPPFCTEFAHAMGRSGLSALADQNAEFGDGWFPAAFSNLDDKRVSTAIAYLDADTRRRANLRIYAETTVRKLVVSGREARGVIAMRADGSRLALDAGEVIVSAGALQSPAILMRAGIGDAGALQALGIEVVADRPGVGRNLQDHPALTFCQFLAPQYRMPLSRRRASMTAARFSSGVPGGEASDMYLSSSTRAGWHALGNRLGLFFLWCNRPFSRGQVSLAGAQPDVPPMVELNLLDDERDLRRMVAGVRKLVQIVGASALHQHPGDFFPATFSPRVKALSRVSRGNVLLTELLGAVLDVSGPLRRSLIARFVTGGANLASLLTDESALEGFVRQSVFGVWHASGTCRMGAHADRSAVTDAAGRVHDVGRLRVIDASLMPRLPTANTNIPTIMLAEKIADTMQAERRAVRPASSEVAHPS | ability to oxidize HMF-acid to furan-dicarboxylic acid (FDCA) |
